The supplement of paper PMC4862054

Experiments:
Conditions in all cases: incubation time: 72 h
[1] = tested on: CAL-148; assay: drug sensitivity score (DSS), CellTiter-Glo (DSS (AUC-based score)); higher = stronger drug effect (viability inhibition or cytotoxicity); extreme values may be limits of the assay
Summary of the method: (§1)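 Normalisation on every plate relied on 0.1 % DMSO and a positive kill control. The plates, 384-well format, held compound at 5 concentrations 10-fold apart across a compound-specific 10,000-fold range, and breast cancer cell lines in 20 µl suspension were incubated on them for 72 h before CellTox Green and then CellTiter-Glo readings. The drug sensitivity score derives from the area under the fitted dose-response curve.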

[2] = tested on: HCC1143; assay: as above
Summary of the method: as §1

[3] = tested on: HCC1937; assay: as above
Summary of the method: as §1

[4] = tested on: HDQ-P1; assay: as above
Summary of the method: as §1

[5] = tested on: MDA-MB-231; assay: as above
Summary of the method: as §1

[6] = tested on: MDA-MB-453; assay: as above
Summary of the method: as §1

[7] = tested on: MFM-223; assay: as above
Summary of the method: as §1

[8] = tested on: BT-474; assay: drug sensitivity score (DSS), CellTox Green (DSS (AUC-based score)); higher = stronger drug effect (viability inhibition or cytotoxicity); extreme values may be limits of the assay
Summary of the method: as §1

[9] = tested on: BT-549; assay: as above
Summary of the method: as §1

[10] = tested on: CAL-120; assay: as above
Summary of the method: as §1

[11] = tested on: CAL-148; assay: as above
Summary of the method: as §1

[12] = tested on: CAL-51; assay: as above
Summary of the method: as §1

[13] = tested on: CAL-85-1; assay: as above
Summary of the method: as §1

[14] = tested on: DU-4475; assay: as above
Summary of the method: as §1

[15] = tested on: HCC1143; assay: as above
Summary of the method: as §1

[16] = tested on: HCC1599; assay: as above
Summary of the method: as §1

[17] = tested on: HCC1937; assay: as above
Summary of the method: as §1

[18] = tested on: HDQ-P1; assay: as above
Summary of the method: as §1

[19] = tested on: Hs578T; assay: as above
Summary of the method: as §1

[20] = tested on: MCF-10A; assay: as above
Summary of the method: as §1

[21] = tested on: MDA-MB-231; assay: as above
Summary of the method: as §1

[22] = tested on: MDA-MB-436; assay: as above
Summary of the method: as §1

[23] = tested on: MDA-MB-453; assay: as above
Summary of the method: as §1

[24] = tested on: MDA-MB-468; assay: as above
Summary of the method: as §1

[25] = tested on: MFM-223; assay: as above
Summary of the method: as §1

| Structure (SMILES) | drug sensitivity score [1] | drug sensitivity score [2] | drug sensitivity score [3] | drug sensitivity score [4] | drug sensitivity score [5] | drug sensitivity score [6] | drug sensitivity score [7] | drug sensitivity score [8] | drug sensitivity score [9] | drug sensitivity score [10] | drug sensitivity score [11] | drug sensitivity score [12] | drug sensitivity score [13] | drug sensitivity score [14] | drug sensitivity score [15] | drug sensitivity score [16] | drug sensitivity score [17] | drug sensitivity score [18] | drug sensitivity score [19] | drug sensitivity score [20] | drug sensitivity score [21] | drug sensitivity score [22] | drug sensitivity score [23] | drug sensitivity score [24] | drug sensitivity score [25] |
| --- | --- | --- | --- | --- | --- | --- | --- | --- | --- | --- | --- | --- | --- | --- | --- | --- | --- | --- | --- | --- | --- | --- | --- | --- | --- |
| CC[C@H](CC#N)OC(=O)N[C@@H](C)c1cccc(NC(=O)Nc2ccc(-c3cnco3)c(OC)c2)c1 [AVN944] | 12.5 | 11.7 | 9.9 | 11.7 | 9.58 | 0 | 6.05 | 0 | 0 | 0 | 0 | 5.68 | 0 | 0 | 0 | 0 | 0 | 0 | 12.6 | 0 | 0 | 0 | 0 | 0 | 0 |
| Cc1cc2c(F)c(Oc3ncnn4cc(OC[C@@H](C)O)c(C)c34)ccc2[nH]1 [Brivanib] | 0 | 0 | 0 | 0 | 0 | 0 | 0 | 0 | 0 | 0 | 0 | 0 | 0.499 | 0 | 0 | 0 | 0 | 0 | 0 | 0 | 0 | 2.68 | 0 | 0 | 0 |
| CC(C)C[C@H](NC(=O)[C@H](CCc1ccccc1)NC(=O)CN1CCOCC1)C(=O)N[C@@H](Cc1ccccc1)C(=O)N[C@@H](CC(C)C)C(=O)[C@@]1(C)CO1 [Carfilzomib] | 17.4 | 23.5 | 20.6 | 20.7 | 21.4 | 22.7 | 28.1 | 8.3 | 8.43 | 17.2 | 19 | 24.4 | 24.8 | 0 | 0 | 0 | 18.4 | 19.1 | 16.7 | 9.99 | 24.1 | 19.2 | 0 | 37.2 | 14.4 |
| Nc1nc(Cl)nc2c1ncn2[C@@H]1O[C@H](CO)[C@@H](O)[C@@H]1F [Clofarabine] | 8.43 | 10.8 | 0 | 3.38 | 1.71 | 0 | 0 | 0 | 0 | 0 | 7.09 | 16.7 | 3.72 | 0 | 0 | 0 | 0 | 0 | 0 | 0 | 0 | 0 | 0 | 0.395 | 0 |
| C[C@@H]1C[C@H]2[C@@H]3CCC4=CC(=O)C=C[C@]4(C)[C@@]3(F)[C@@H](O)C[C@]2(C)[C@@]1(O)C(=O)CO [Dexamethasone] | 0 | 0 | 0 | 4.16 | 0 | 4 | 0 | 0 | 0 | 0 | 0 | 0 | 0 | 0 | 0 | 0 | 0 | 0 | 1.94 | 3.19 | 0 | 0 | 0 | 0 | 0 |
| CCc1cnn2c(NCc3ccc[n+]([O-])c3)cc(N3CCCC[C@H]3CCO)nc12 [Dinaciclib] | 7.54 | 19.1 | 14.9 | 18.2 | 25.4 | 16 | 17.8 | 3.72 | 0 | 1.4 | 9.14 | 8.81 | 18.4 | 0 | 0 | 5.57 | 0 | 11.4 | 12.4 | 6.99 | 25.4 | 0 | 0 | 19.6 | 13.1 |
| Cc1c(C(=O)Nc2ccc(N3C[C@@H](C)O[C@@H](C)C3)nc2)cccc1-c1ccc(OC(F)(F)F)cc1 [Erismodegib] | 0 | 0 | 0 | 0.664 | 0 | 0 | 1.41 | 0 | 0 | 0 | 2.18 | 0 | 0 | 0 | 0 | 0 | 0 | 0 | 0 | 0 | 0.0859 | 0 | 0 | 0 | 0 |
| COc1cc2c(Oc3ccc(NC(=O)C4(C(=O)Nc5ccc(F)cc5)CC4)cc3F)ccnc2cc1OCCCN1CCOCC1 [Foretinib] | 1.11 | 1.22 | 0 | 0 | 2.4 | 0 | 6.22 | 0 | 0 | 0 | 1.71 | 4.29 | 0 | 0 | 1.04 | 0 | 0 | 0 | 2.65 | 0 | 10.4 | 0 | 0 | 3.1 | 0 |
| CC(C)NC[C@@H](C(=O)N1CCN(c2ncnc3c2[C@H](C)C[C@H]3O)CC1)c1ccc(Cl)cc1 [GDC-0068] | 19.6 | 2.35 | 3.46 | 7.19 | 0 | 10.4 | 16.6 | 0.545 | 0 | 0 | 14.1 | 2.24 | 0 | 0 | 0 | 0 | 0 | 0.469 | 0 | 0 | 0 | 0 | 0 | 3.49 | 1.29 |
